Source: patent US9687479B2, “Multisubstituted aromatic compounds as serine protease inhibitors” (VERSEON CORPORATION, priority 2013, dated 2017)

Each molecule was assayed against Human thrombin (Homo sapiens (Human), UniProt P00734) (assay: Thrombin protease activity inhibition assay (chromogenic substrate S-2238)). Conditions: 3 nM thrombin, 125 μM S-2238, 10 min pre-incubation, RT.
Type: biochemical
In short: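 Ten-point, three-fold serial dilutions of compound tested against 3 nM enzyme at RT in Tris buffer (0.05 M, pH 7.4) with 0.015 M NaCl and 0.01% PEG-8000.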
`COc1ccccc1C(=O)n1nc(-c2cccn(CCc3ccccc3)c2=O)cc1NCc1ccc(Cl)s1` [Cmpd 134, 3-(5-[(5-chlorothiophen-2-yl)methyl]amino-1-[(2-methoxyphenyl)carbonyl]-1H-pyrazol-3-yl)-1-(2-phenylethyl)-1,2-dihydropyridin-2-one] gave an IC50 of under 100 nM. `COc1ccccc1C(=O)n1nc(-c2cccn(Cc3ccco3)c2=O)cc1NCc1ccc(Cl)s1` [Cmpd 135, 3-(5-[(5-chlorothiophen-2-yl)methyl]amino-1-[(2-methoxyphenyl)carbonyl]-1H-pyrazol-3-yl)-1-(furan-2-ylmethyl)-1,2-dihydropyridin-2-one] was tested, and the IC50 was under 100 nM. Molecule `COc1ccccc1C(=O)n1nc(-c2cccn(Cc3ccoc3)c2=O)cc1NCc1ccc(Cl)s1` [Cmpd 136, 3-(5-[(5-chlorothiophen-2-yl)methyl]amino-1-[(2-methoxyphenyl)carbonyl]-1H-pyrazol-3-yl)-1-(furan-3-ylmethyl)-1,2-dihydropyridin-2-one] has an IC50 of under 100 nM. Molecule `COc1ccccc1C(=O)n1nc(-c2cccn(Cc3ccc4ccccc4c3)c2=O)cc1NCc1ccc(Cl)s1` [Cmpd 137, 3-(5-[(5-chlorothiophen-2-yl)methyl]amino-1-[(2-methoxyphenyl)carbonyl]-1H-pyrazol-3-yl)-1-(naphthalen-2-ylmethyl)-1,2-dihydropyridin-2-one] has an IC50 of under 100 nM. `COc1ccccc1C(=O)n1nc(-c2cccn(Cc3ccccn3)c2=O)cc1NCc1ccc(Cl)s1` [Cmpd 139, 3-(5-[(5-chlorothiophen-2-yl)methyl]amino-1-[(2-methoxyphenyl)carbonyl]-1H-pyrazol-3-yl)-1-(pyridin-2-ylmethyl)-1,2-dihydropyridin-2-one] was tested, and the IC50 was under 100 nM. Work on `COc1ccccc1C(=O)n1nc(-c2cccn(Cc3ccncc3)c2=O)cc1NCc1ccc(Cl)s1` [Cmpd 141, 3-(5-[(5-chlorothiophen-2-yl)methyl]amino-1-[(2-methoxyphenyl)carbonyl]-1H-pyrazol-3-yl)-1-(pyridin-4-ylmethyl)-1,2-dihydropyridin-2-one] yielded an IC50 of under 100 nM. `COc1ccccc1C(=O)n1nc(-c2cccn(Cc3ncccn3)c2=O)cc1NCc1ccc(Cl)s1` [Cmpd 142, 3-(5-[(5-chlorothiophen-2-yl)methyl]amino-1-[(2-methoxyphenyl)carbonyl]-1H-pyrazol-3-yl)-1-(pyrimidin-2-ylmethyl)-1,2-dihydropyridin-2-one] gave an IC50 of under 100 nM. Molecule `COc1ccccc1C(=O)n1nc(-c2cccn(Cc3cccs3)c2=O)cc1NCc1ccc(Cl)s1` [Cmpd 143, 3-(5-[(5-chlorothiophen-2-yl)methyl]amino-1-[(2-methoxyphenyl)carbonyl]-1H-pyrazol-3-yl)-1-(thiophen-2-ylmethyl)-1,2-dihydropyridin-2-one] has an IC50 of under 100 nM. Molecule `COc1ccccc1C(=O)n1nc(-c2cccn(Cc3ccsc3)c2=O)cc1NCc1ccc(Cl)s1` [Cmpd 144, 3-(5-[(5-chlorothiophen-2-yl)methyl]amino-1-[(2-methoxyphenyl)carbonyl]-1H-pyrazol-3-yl)-1-(thiophen-3-ylmethyl)-1,2-dihydropyridin-2-one] has an IC50 of under 100 nM. In the case of `COc1ccccc1C(=O)n1nc(-c2cccn(CCN3CCOCC3)c2=O)cc1NCc1ccc(Cl)s1` [Cmpd 146, 3-(5-[(5-chlorothiophen-2-yl)methyl]amino-1-[(2-methoxyphenyl)carbonyl]-1H-pyrazol-3-yl)-1-[2-(morpholin-4-yl)ethyl]-1,2-dihydropyridin-2-one], the IC50 is reported as under 100 nM. `COc1ccccc1C(=O)n1nc(-c2cccn(C)c2=O)cc1NCc1ccc(Cl)s1` [Cmpd 147, 3-(5-[(5-chlorothiophen-2-yl)methyl]amino-1-[(2-methoxyphenyl)carbonyl]-1H-pyrazol-3-yl)-1-methyl-1,2-dihydropyridin-2-one] was tested, and the IC50 was under 100 nM. `Cn1cccc(-c2cc(NCc3ccc(Cl)s3)n(C(=O)C3(C)COC3)n2)c1=O` [Cmpd 148, 3-(5-[(5-chlorothiophen-2-yl)methyl]amino-1-[(3-methyloxetan-3-yl)carbonyl]-1H-pyrazol-3-yl)-1-methyl-1,2-dihydropyridin-2-one] showed an IC50 of 100 to 1000 nM. For `CC1(C(=O)n2nc(-c3cccn(Cc4ccco4)c3=O)cc2NCc2ccc(Cl)s2)CCOCC1` [Cmpd 150, 3-(5-[(5-chlorothiophen-2-yl)methyl]amino-1-[(4-methyloxan-4-yl)carbonyl]-1H-pyrazol-3-yl)-1-(furan-2-ylmethyl)-1,2-dihydropyridin-2-one], the IC50 was under 100 nM. With `CC1(C(=O)n2nc(-c3cccn(Cc4ccoc4)c3=O)cc2NCc2ccc(Cl)s2)CCOCC1` [Cmpd 151, 3-(5-[(5-chlorothiophen-2-yl)methyl]amino-1-[(4-methyloxan-4-yl)carbonyl]-1H-pyrazol-3-yl)-1-(furan-3-ylmethyl)-1,2-dihydropyridin-2-one] the IC50 was under 100 nM. `CC1(C(=O)n2nc(-c3cccn(Cc4cccnn4)c3=O)cc2NCc2ccc(Cl)s2)CCOCC1` [Cmpd 152, 3-(5-[(5-chlorothiophen-2-yl)methyl]amino-1-[(4-methyloxan-4-yl)carbonyl]-1H-pyrazol-3-yl)-1-(pyridazin-3-ylmethyl)-1,2-dihydropyridin-2-one] showed an IC50 of under 100 nM. Molecule `CC1(C(=O)n2nc(-c3cccn(Cc4ccccn4)c3=O)cc2NCc2ccc(Cl)s2)CCOCC1` [Cmpd 153, 3-(5-[(5-chlorothiophen-2-yl)methyl]amino-1-[(4-methyloxan-4-yl)carbonyl]-1H-pyrazol-3-yl)-1-(pyridin-2-ylmethyl)-1,2-dihydropyridin-2-one] has an IC50 of under 100 nM. `CC1(C(=O)n2nc(-c3cccn(Cc4cccnc4)c3=O)cc2NCc2ccc(Cl)s2)CCOCC1` [Cmpd 154, 3-(5-[(5-chlorothiophen-2-yl)methyl]amino-1-[(4-methyloxan-4-yl)carbonyl]-1H-pyrazol-3-yl)-1-(pyridin-3-ylmethyl)-1,2-dihydropyridin-2-one] showed an IC50 of under 100 nM. Molecule `CC1(C(=O)n2nc(-c3cccn(Cc4ccncc4)c3=O)cc2NCc2ccc(Cl)s2)CCOCC1` [Cmpd 155, 3-(5-[(5-chlorothiophen-2-yl)methyl]amino-1-[(4-methyloxan-4-yl)carbonyl]-1H-pyrazol-3-yl)-1-(pyridin-4-ylmethyl)-1,2-dihydropyridin-2-one] has an IC50 of under 100 nM. For `CC1(C(=O)n2nc(-c3cccn(Cc4ncccn4)c3=O)cc2NCc2ccc(Cl)s2)CCOCC1` [Cmpd 156, 3-(5-[(5-chlorothiophen-2-yl)methyl]amino-1-[(4-methyloxan-4-yl)carbonyl]-1H-pyrazol-3-yl)-1-(pyrimidin-2-ylmethyl)-1,2-dihydropyridin-2-one], the IC50 was under 100 nM. `CC1(C(=O)n2nc(-c3cccn(Cc4ccsc4)c3=O)cc2NCc2ccc(Cl)s2)CCOCC1` [Cmpd 158, 3-(5-[(5-chlorothiophen-2-yl)methyl]amino-1-[(4-methyloxan-4-yl)carbonyl]-1H-pyrazol-3-yl)-1-(thiophen-3-ylmethyl)-1,2-dihydropyridin-2-one] showed an IC50 of under 100 nM. `CC1(C(=O)n2nc(-c3cccn(CCN4CCOCC4)c3=O)cc2NCc2ccc(Cl)s2)CCOCC1` [Cmpd 159, 3-(5-[(5-chlorothiophen-2-yl)methyl]amino-1-[(4-methyloxan-4-yl)carbonyl]-1H-pyrazol-3-yl)-1-[2-(morpholin-4-yl)ethyl]-1,2-dihydropyridin-2-one] gave an IC50 of over 100000 nM. In the case of `O=C(c1ccco1)n1nc(-c2cccn(Cc3ccco3)c2=O)cc1NCc1ccc(Cl)s1` [Cmpd 161, 3-(5-[(5-chlorothiophen-2-yl)methyl]amino-1-[(furan-2-yl)carbonyl]-1H-pyrazol-3-yl)-1-(furan-2-ylmethyl)-1,2-dihydropyridin-2-one], the IC50 is reported as under 100 nM. For `O=C(c1ccco1)n1nc(-c2cccn(Cc3ccoc3)c2=O)cc1NCc1ccc(Cl)s1` [Cmpd 162, 3-(5-[(5-chlorothiophen-2-yl)methyl]amino-1-[(furan-2-yl)carbonyl]-1H-pyrazol-3-yl)-1-(furan-3-ylmethyl)-1,2-dihydropyridin-2-one], the IC50 was under 100 nM. `O=C(c1ccco1)n1nc(-c2cccn(Cc3cccnn3)c2=O)cc1NCc1ccc(Cl)s1` [Cmpd 163, 3-(5-[(5-chlorothiophen-2-yl)methyl]amino-1-[(furan-2-yl)carbonyl]-1H-pyrazol-3-yl)-1-(pyridazin-3-ylmethyl)-1,2-dihydropyridin-2-one] was tested, and the IC50 was over 100000 nM. `O=C(c1ccco1)n1nc(-c2cccn(Cc3ccccn3)c2=O)cc1NCc1ccc(Cl)s1` [Cmpd 164, 3-(5-[(5-chlorothiophen-2-yl)methyl]amino-1-[(furan-2-yl)carbonyl]-1H-pyrazol-3-yl)-1-(pyridin-2-ylmethyl)-1,2-dihydropyridin-2-one] showed an IC50 of under 100 nM. For `O=C(c1ccco1)n1nc(-c2cccn(Cc3cccnc3)c2=O)cc1NCc1ccc(Cl)s1` [Cmpd 165, 3-(5-[(5-chlorothiophen-2-yl)methyl]amino-1-[(furan-2-yl)carbonyl]-1H-pyrazol-3-yl)-1-(pyridin-3-ylmethyl)-1,2-dihydropyridin-2-one], the IC50 was under 100 nM. `O=C(c1ccco1)n1nc(-c2cccn(Cc3ccncc3)c2=O)cc1NCc1ccc(Cl)s1` [Cmpd 166, 3-(5-[(5-chlorothiophen-2-yl)methyl]amino-1-[(furan-2-yl)carbonyl]-1H-pyrazol-3-yl)-1-(pyridin-4-ylmethyl)-1,2-dihydropyridin-2-one] showed an IC50 of under 100 nM. `O=C(c1ccco1)n1nc(-c2cccn(Cc3ncccn3)c2=O)cc1NCc1ccc(Cl)s1` [Cmpd 167, 3-(5-[(5-chlorothiophen-2-yl)methyl]amino-1-[(furan-2-yl)carbonyl]-1H-pyrazol-3-yl)-1-(pyrimidin-2-ylmethyl)-1,2-dihydropyridin-2-one] gave an IC50 of under 100 nM. `O=C(c1ccco1)n1nc(-c2cccn(Cc3cccs3)c2=O)cc1NCc1ccc(Cl)s1` [Cmpd 168, 3-(5-[(5-chlorothiophen-2-yl)methyl]amino-1-[(furan-2-yl)carbonyl]-1H-pyrazol-3-yl)-1-(thiophen-2-ylmethyl)-1,2-dihydropyridin-2-one] was tested, and the IC50 was under 100 nM. In the case of `O=C(c1ccco1)n1nc(-c2cccn(Cc3ccsc3)c2=O)cc1NCc1ccc(Cl)s1` [Cmpd 169, 3-(5-[(5-chlorothiophen-2-yl)methyl]amino-1-[(furan-2-yl)carbonyl]-1H-pyrazol-3-yl)-1-(thiophen-3-ylmethyl)-1,2-dihydropyridin-2-one], the IC50 is reported as under 100 nM.
